The text below walks through data of PubChem BioAssay (NCI).

Molecules are shown by their SMILES.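 Five concentrations, 48 hours, 96-well plates. At the GI50, growth is halved. TGI: concentration producing complete growth inhibition.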 Some results are limits rather than exact numbers.

Some test systems named below: BT-549 breast; MCF7 breast; MDA-MB-231 breast; MDA-MB-435; NCI/ADR-RES ovarian; PC-3 prostate; T-47D breast.
Assay in all cases: NCI-60 cell line screen, 48 h

`O=C1/C(=C\c2cccs2)Oc2ccccc21`: the TGI with BT-549 breast, with MCF7 breast, in the assay on MDA-MB-231 breast, in the assay with MDA-MB-435, with NCI/ADR-RES ovarian and in the assay with PC-3 prostate was greater than 100 µM throughout. The same molecule displayed a TGI in the assay with T-47D breast of 10.8 µM.

`CN(C)CN1C(=O)S/C(=C2\C(=O)N(CN(C)C)c3ccccc32)C1=O`: the TGI in the assay with BT-549 breast, with MCF7 breast, in the assay on MDA-MB-231 breast, in the assay with MDA-MB-435, in the assay on NCI/ADR-RES ovarian and in the assay on PC-3 prostate was greater than 100 µM throughout. In addition, the TGI in the assay on T-47D breast is greater than 100 µM.

As to `O=C(O)C(Cc1ccc(O)c([N+](=O)[O-])c1)N1C(=O)c2ccccc2C1=O` (stereo unspecified), the TGI in the assay with BT-549 breast, in the assay with MCF7 breast, with MDA-MB-231 breast, in the assay on MDA-MB-435, with NCI/ADR-RES ovarian and with PC-3 prostate was greater than 100 µM each time. This molecule also registered a TGI with T-47D breast greater than 100 µM.

For the molecule `C=C(CNCCO)[C@@H]1CC[C@]2(CO)CC[C@]3(C)[C@H](CC[C@@H]4[C@@]5(C)CCC(NCCc6ccc(O)cc6)C(C)(C)[C@@H]5CC[C@]43C)[C@@H]12` (stereo partly specified), the GI50 with BT-549 breast was 1.55 µM; in the assay on MCF7 breast it was 0.339 µM; in the assay on MDA-MB-231 breast it was 0.854 µM; with MDA-MB-435 it was 1.51 µM; in the assay with NCI/ADR-RES ovarian, 2.18 µM; in the assay with PC-3 prostate, 1.38 µM. In the assay with T-47D breast, the GI50 was 1.74 µM. The TGI was found to be 3.23 µM with BT-549 breast; 1.48 µM with MCF7 breast; 2.17 µM in the assay with MDA-MB-231 breast; 2.9 µM in the assay on MDA-MB-435; 5.1 µM in the assay on NCI/ADR-RES ovarian; 3.07 µM in the assay with PC-3 prostate. The molecule also gave a TGI in the assay on T-47D breast of 3.55 µM.

Regarding `CN(C)CCNC(=O)c1cccc(CO)c1[N+](=O)[O-]`, the TGI with BT-549 breast, in the assay on MCF7 breast, with MDA-MB-231 breast, with MDA-MB-435, in the assay with NCI/ADR-RES ovarian and in the assay on PC-3 prostate was greater than 100 µM in each case. The TGI in the assay with T-47D breast was greater than 100 µM.

As to `CC/C=C\C[C@H](O)C/C=C1/C(=O)C=C[C@@H]1C/C=C\CCCC(N)=O`, the GI50 in the assay on BT-549 breast is 2.17 µM; in the assay with MCF7 breast it was 0.626 µM; in the assay with MDA-MB-231 breast, 4.2 µM; in the assay with MDA-MB-435, 1.72 µM; with NCI/ADR-RES ovarian, 2.81 µM; with PC-3 prostate, 2.15 µM. The GI50 in the assay with T-47D breast is 3.14 µM. Further, the TGI with BT-549 breast was 5.54 µM; in the assay on MCF7 breast, 11.7 µM; with MDA-MB-231 breast, 15.2 µM; in the assay with MDA-MB-435, 5.24 µM; in the assay on NCI/ADR-RES ovarian, 12.3 µM; in the assay with PC-3 prostate, 5.36 µM. Besides, the TGI in the assay with T-47D breast is 15.3 µM.

In the case of `C=C1C(=O)O[C@H]2[C@H]1CC/C(COC(=O)c1ccc(C(=O)O)s1)=C\CC[C@@]1(C)O[C@@H]21`, the GI50 is 1.72 µM in the assay with BT-549 breast; 1.6 µM with MDA-MB-231 breast; 1.92 µM in the assay with MDA-MB-435; 3.4 µM with NCI/ADR-RES ovarian; 2.9 µM in the assay on PC-3 prostate; 2.22 µM with T-47D breast. In addition, the TGI in the assay on BT-549 breast was 4.85 µM; in the assay on MDA-MB-231 breast, 3.06 µM; in the assay on MDA-MB-435, 4 µM; in the assay with NCI/ADR-RES ovarian, 26.2 µM; in the assay with PC-3 prostate it was 11.4 µM; in the assay on T-47D breast it was 5.53 µM.

In the case of `COC1C(=O)CCC2(CO2)C1(O)C1(C)OC1CCC(C)C` (stereo unspecified), the TGI with BT-549 breast, in the assay on MCF7 breast, with MDA-MB-231 breast, in the assay with MDA-MB-435, in the assay on NCI/ADR-RES ovarian and in the assay with PC-3 prostate was greater than 100 µM each time. For the same molecule, the TGI in the assay with T-47D breast was greater than 100 µM.

For `NC(N)=N/N=C/c1c(-c2cc(Cl)sc2Cl)nc2n1CCS2`, the GI50 was 8.51 µM in the assay with BT-549 breast; 10.6 µM in the assay on MCF7 breast; 7.64 µM in the assay with MDA-MB-231 breast; 11.1 µM in the assay with MDA-MB-435; greater than 50 µM in the assay on NCI/ADR-RES ovarian; 8.2 µM with PC-3 prostate. The TGI was 17.3 µM in the assay with BT-549 breast; 25.3 µM in the assay on MCF7 breast; 15.6 µM in the assay on MDA-MB-231 breast; 19.7 µM in the assay with MDA-MB-435; greater than 50 µM in the assay with NCI/ADR-RES ovarian; 15.2 µM with PC-3 prostate.

As for `O=C1Cc2c(-c3ccccc3)cc(-c3cccc(Cl)c3)nc2-c2ccccc2N1`, the TGI was 22.1 µM with BT-549 breast; greater than 22.6 µM with MCF7 breast; 5.49 µM in the assay on MDA-MB-231 breast; greater than 59.9 µM in the assay with MDA-MB-435; 7.46 µM in the assay on NCI/ADR-RES ovarian; 23.2 µM in the assay with PC-3 prostate. The same molecule yielded a TGI in the assay on T-47D breast of 6.01 µM.

Take `O=c1c(OC/C(=N/O)c2ccccc2)c(-c2ccccc2)oc2ccccc12`: the GI50 was 13.2 µM in the assay with BT-549 breast; 9.39 µM in the assay on MDA-MB-231 breast; 10.9 µM in the assay with MDA-MB-435; 14 µM with NCI/ADR-RES ovarian; 8.64 µM in the assay on PC-3 prostate; 14.8 µM in the assay with T-47D breast. Further, the TGI was determined as 26.8 µM in the assay with BT-549 breast; 23.6 µM with MDA-MB-231 breast; 28 µM with MDA-MB-435; 42 µM in the assay with NCI/ADR-RES ovarian; 18 µM in the assay on PC-3 prostate; 38.1 µM with T-47D breast.

For `OCC1OC(N2C=C(c3nc4ccccc4s3)C3C=CC=CC32)C(O)C1O` (stereo unspecified), the GI50 in the assay on BT-549 breast was 9.55 µM; with MCF7 breast, 5.95 µM; in the assay with MDA-MB-231 breast, 11.3 µM; in the assay with MDA-MB-435, 12 µM; with NCI/ADR-RES ovarian, 12.2 µM; in the assay on PC-3 prostate, 8.59 µM. Further, the TGI in the assay with BT-549 breast is 27.5 µM; in the assay with MCF7 breast, greater than 50 µM; in the assay with MDA-MB-231 breast, 30.2 µM; in the assay on MDA-MB-435, 24.5 µM; in the assay on NCI/ADR-RES ovarian, 36.9 µM; with PC-3 prostate, 42.4 µM.

As to `COc1ccc([N+](=O)[O-])c2c(NCC(O)CO)ccnc12` (stereo unspecified), the TGI in the assay with BT-549 breast was 56 µM; in the assay on MCF7 breast it was greater than 100 µM; in the assay on MDA-MB-231 breast it was greater than 100 µM; in the assay with MDA-MB-435 it was greater than 100 µM; in the assay with PC-3 prostate, greater than 100 µM; with T-47D breast, greater than 100 µM.

For `Cc1ccc(S(=O)(=O)NCCN2c3nc4ccccc4cc3Sc3cc4ccccc4nc32)cc1`, the GI50 is 17.4 µM in the assay on BT-549 breast; greater than 100 µM with MCF7 breast; 4.61 µM in the assay with MDA-MB-231 breast; greater than 100 µM in the assay with MDA-MB-435; greater than 25.1 µM in the assay with NCI/ADR-RES ovarian; 4.54 µM with T-47D breast. Also, the TGI in the assay with BT-549 breast, in the assay on MCF7 breast, in the assay on MDA-MB-231 breast, in the assay with MDA-MB-435, in the assay on NCI/ADR-RES ovarian and in the assay with T-47D breast was greater than 100 µM each time.
